According to US11590240B2, “Nano-fibular nanoparticle polymer-drug conjugate for sustained dermal delivery of retinoids” (Massachusetts Institute of Technology, priority 2015, dated 2023):

Columns and labels:
[1] = Solubility of free ATRA and PATRA in different solutions (UV absorbance of supernatant); assay type: physicochemical
Experimental: Solubility was evaluated by bringing 2 mg/ml of ATRA either free or conjugated to PVA into equilibrium at room temperature for 1 hour, followed by centrifugation of the solution at 1,500 rpm for five minutes to remove undissolved precipitate. The supernatant from this process was then used for the testing of ATRA concentration via UV absorbance as previously described.

[2] = Uptake, retention and penetration of ATRA in pig skin, Franz diffusion cell; assay type: in vitro ADME
Experimental: Uptake, retention, and penetration of ATRA in pig skin were investigated using a Franz diffusion cell as described and known in the art. Skin was harvested from the flanks of adult female Yorkshire pigs 1 hour after sacrifice with subcutaneous fat removed. Skin was sectioned and frozen at −80° C. for up to six months prior to use. Skin was prepared for diffusion experiments by thawing in PBS for one hour after which time all hair on the skin was shaven off. Test samples of skin were cut to 30 mm×30 mm square samples and placed into the diffusion cell such that the top of the dermis faced a 3 mL testing retention reservoir and the underside faced a 15 mL penetration reservoir. […]
Samples were placed into the retention reservoir at a concentration of 0.1 mg/mL and followed for up to 12 hours. ATRA concentration was evaluated in both the retention and penetration reservoirs every four hours during this period via UV absorbance measurements. […] For both groups, the penetration reservoir was filled with a hydroalcoholic solution so that the ATRA that could penetrate the skin would be soluble for UV absorbance measurement. […]
Samples to be tested were placed into the retention reservoir at a concentration of 0.1 mg/mL and followed for up to 12 hours. ATRA concentration was evaluated in both the retention and penetration reservoirs every four hours during this period via UV absorbance measurements. […]

Balb/CJ mouse = test: Irritation after topical application to mouse dermis (digital imaging, H&E histology); assay type: in vivo; settings: for gross appearance of treated skin: 10 μM ATRA dosing equivalent, topical
Experimental: Mice used for the assessment of irritation were given each of the two different treatments on 1 cm^2 regions of their dorsum, these included PATRA, ATRA, PVA, and PBS. A total of twelve mice were used in this assessment. 50 μL of 10 μM ATRA solution was placed on two 1 cm^2 shaved areas on the flanks of a Balb/CJ mouse on either side of midline. PATRA (0.092 mg mL^−1) and PVA (0.089 mg mL^−1) concentrations were controlled for 10 μM ATRA dosing. These solutions were rubbed into the skin using a cotton-tipped applicator for 30 seconds.
Tissues were fixed in zinc fixative without formalin for 48 hours. The excised tissues were cut on center and then embedded cut-face down in paraffin. Sections were taken at the wound center and at one further level of 500 μm reaching a total of 1 mm sampling length through the application site. At each level an H&E slide was stained. Unstained slides were also taken for potential IHC analysis of the tissue. All sections were 5 μm thick. Image analysis was performed using Image J.
To investigate the relative irritative nature of PATRA in comparison to ATRA, each was tested on the flanks of mice. Irritation was evaluated by digital imaging of the application site of ATRA, PATRA, or control solutions for up to five days post-application as well as by histological evaluation of inflammation after 5 days. In brief, 50 μL of 10 μM ATRA solution was placed on a 1 cm^2 shaved area on the flank of a Balb/CJ mouse. PATRA (0.092 mg mL^−1) and PVA (0.089 mg mL^−1) concentrations were controlled for 10 μM ATRA dosing. This solution is rubbed into the skin using a cotton-tipped applicator for 30 seconds. Each mouse received one of the four different material solutions applied in two locations. Inflammation and dermal changes subsequent to ATRA application were evaluated by both by digital imaging and by H&E histology.

SMILES: CC1=C(/C=C/C(C)=C/C=C/C(C)=C/C(=O)O)C(C)(C)CCC1 [ATRA, All-trans retinoic acid]
- solubility, in words ([1]; PBS 1× (pH7.4)): insoluble
- solubility, in words ([1]; deionized water): insoluble
- fraction of ATRA accumulated within the treated skin ([2]; 12 hours of exposure, 0.1 mg/mL in retention reservoir, room temperature): 1.9±0.9%
- ATRA in the receiving (penetration) reservoir, free ATRA versus PATRA ([2]; every four hours up to 12 hours): much higher level of ATRA accumulation at every time point tested
- stratum corneum (SC) and epidermal thickness, histology (Balb/CJ mouse; after 5 days): Significantly increased
- gross appearance of treated skin (Balb/CJ mouse; five days post-application): still has a rash-like quality with a thick and calloused appearance
- gross appearance of treated skin (Balb/CJ mouse; three days post-application): begins to appear inflamed after three days
